Consider 15 compounds from patent US20110039879A1, “METHODS FOR INCREASING WHITE BLOOD CELLS” (FibroGen ,Inc., priority 2007, published 2011).

What all share (format): in vivo, Swiss-Webster mice
In one assay the test system is lymphocytes. The assay can be described thus: Lymphocytes by complete blood count on day 8, dosing day 1, 3, 5. Particulars: mice, oral gavage, measured on day 8. Here is the method:
(§1) To examine the effect of compounds and methods of the present invention on increasing white blood cells, the following studies were performed. In one series of experiments, male Swiss-Webster mice were administered various compounds of the present invention via oral gavage using a ball-tipped gavage needle. […] Animals were dosed once daily for 3 or 4 days. Six hours after the final dosing, 200 μl blood samples were collected and total white blood cell, neutrophil, and lymphocyte levels were measured by complete blood count (CBC) using a CellDyn cell analyzer (Abbott Laboratories).
(§2) In another series of experiments, male Swiss-Webster mice were administered various compounds (see Table 7 and Table 8) of the present invention via oral gavage using a ball-tipped gavage needle. […] Total WBC, neutrophil, lymphocyte, and monocyte levels were measured in mice as described above on day 8 following administration of compound on day 1, day 3, and day 5.

Another assay relates to monocytes. The assay is described as follows: Monocytes by complete blood count on day 8, dosing day 1, 3, 5. The note with it: mice, oral gavage, measured on day 8.
The subject of assay [1] is total white blood cell (WBC). The assay can be described thus: Total white blood cells by complete blood count on day 8, dosing day 1, 3, 5. Particulars: mice, oral gavage, measured on day 8; for change in vivo at 6 mg/kg: Mus musculus, 192 h, read-out: Total WBC % Increase Over Control.
Assay [2] relates to neutrophils. The assay is described as follows: Neutrophils by complete blood count on day 8, dosing day 1, 3, 5. Particulars: mice, oral gavage, measured on day 8; for change in vivo at 6 mg/kg: Mus musculus, Neutrophil, 192 h, read-out: Neutrophils % Increase Over Control.
Assay [3] has as its system total white blood cell (WBC). The assay can be described thus: Total white blood cells by complete blood count on day 8, dosing day 1, 3, 5. The note with it: Mus musculus, 192 h, mice, oral gavage, measured on day 8, read-out: Total WBC % Increase Over Control; for change in vivo at 100 mg/kg: 100 mg/kg on day 1, day 3 and day 5; for change in vivo at 60 mg/kg: 60 mg/kg on day 1, day 3 and day 5; for change in vivo at 200 mg/kg: 200 mg/kg on day 1, day 3 and day 5. Here is the method:
as §1, §2

In assay [4] the test system is neutrophils. The assay is described as follows: Neutrophils by complete blood count on day 8, dosing day 1, 3, 5. Particulars: Mus musculus, Neutrophil, 192 h; mice, oral gavage, 100 mg/kg on day 1, day 3 and day 5; measured on day 8; read-out: Neutrophils % Increase Over Control. Here is the method: as §1, §2
[5] abbreviates: Mus musculus, Lymphocyte, 192 h, 6 mg/kg on day 1, day 3 and day 5, read-out: Lymphocytes % Increase Over Control.
Setting [6] is: 6 mg/kg on day 1, day 3 and day 5.
[7] abbreviates: Mus musculus, Lymphocyte, 192 h, 100 mg/kg on day 1, day 3 and day 5, read-out: Lymphocytes % Increase Over Control.
[8] abbreviates: 100 mg/kg on day 1, day 3 and day 5.
Setting [9] is: 20 mg/kg on day 1, day 3 and day 5.
[10] abbreviates: 60 mg/kg on day 1, day 3 and day 5.
The mark [11] stands for this setting: 200 mg/kg on day 1, day 3 and day 5.

With `O=C(O)CNC(=O)c1ncc2c(Oc3ccccc3)cccc2c1O` [Compound AB, [(4-Hydroxy-8-phenoxy-isoquinoline-3-carbonyl)-amino]-acetic acid], the change in vivo at 6 mg/kg in the assay with lymphocytes (setting [5]) was 42%. In addition, the Lymphocytes in the assay on lymphocytes (setting [6]) is 6.8 10^3 cells/μl. In addition, the Monocytes in the assay with monocytes (setting [6]) was 0.2 10^3 cells/μl. In assay [1] (setting [6]), the change in vivo at 6 mg/kg was 78% and the “Total WBC” value is on record as 9.8 10^3 cells/μl. Moreover, in the assay on neutrophils [2] (setting [6]), the change in vivo at 6 mg/kg was found to be 398% and the Neutrophils is 2.8 10^3 cells/μl.

As to `Cc1nc(C(=O)NCC(=O)O)c(O)c2cccc(Oc3ccccc3)c12` [Compound AC, [(4-Hydroxy-1-methyl-8-phenoxy-isoquinoline-3-carbonyl)-amino]-acetic acid], the results for the change in vivo at 100 mg/kg (in assay [3]; in the assay with neutrophils [4]; in the assay on lymphocytes (setting [7])) were 94%, 96% and 95%, respectively. Further, in the assay with lymphocytes (setting [8]), the Lymphocytes is 8.0 10^3 cells/μl. The Monocytes in the assay on monocytes (setting [8]) was 0.1 10^3 cells/μl. The “Total WBC” value in assay [1] (setting [8]) is listed as 9.2 10^3 cells/μl. Also, the Neutrophils in the assay on neutrophils [2] (setting [8]) is 1.0 10^3 cells/μl.

For the compound `Cc1nc(C(=O)NCC(=O)O)c(O)c2cccc(Oc3ccc(F)cc3)c12` [Compound AE, {[8-(4-Fluoro-phenoxy)-4-hydroxy-1-methyl-isoquinoline-3-carbonyl]-amino}-acetic acid], the change in vivo at 6 mg/kg in the assay on lymphocytes (setting [5]) came out at 105%. Besides, in the assay on lymphocytes (setting [6]), the Lymphocytes is on record as 11.0 10^3 cells/μl. The Monocytes in the assay on monocytes (setting [6]) was 0.1 10^3 cells/μl. For the same compound, in assay [1] (setting [6]), the change in vivo at 6 mg/kg came to 109% and the “Total WBC” value was 12.3 10^3 cells/μl. Also, in the assay on neutrophils [2] (setting [6]), the change in vivo at 6 mg/kg was 175% and the Neutrophils is 1.1 10^3 cells/μl.

Consider `Cc1cccc(C)c1Oc1ccc2c(O)c(C(=O)NCC(=O)O)nc(C#N)c2c1` [Compound AI, {[1-Cyano-7-(2,6-dimethyl-phenoxy)-4-hydroxy-isoquinoline-3-carbonyl]-amino}-acetic acid], for which the change in vivo at 100 mg/kg in assay [3] was determined as 266%; in the assay on neutrophils [4] it was 45%; in the assay with lymphocytes (setting [7]) it was 303%; in the assay on monocytes (Mus musculus, Monocyte, 192 h, 100 mg/kg on day 1, day 3 and day 5, read-out: Monocytes % Increase Over Control), 0%. Also, the Lymphocytes in the assay on lymphocytes (setting [8]) is 17.4 10^3 cells/μl. Further, the Monocytes in the assay on monocytes (setting [8]) was 0.1 10^3 cells/μl. Also, in assay [1] (setting [8]), the “Total WBC” value was 18.3 10^3 cells/μl. In the assay with neutrophils [2] (setting [8]), the Neutrophils is 0.7 10^3 cells/μl.

On to `N#Cc1nc(C(=O)NCC(=O)O)c(O)c2cc(C(F)(F)F)n(Cc3ccccc3F)c12` [Compound AQ, {[7-Cyano-1-(2-fluoro-benzyl)-4-hydroxy-2-trifluoromethyl-1H-pyrrolo[2,3-c]pyridine-5-carbonyl]-amino}-acetic acid], for which the change in vivo at 20 mg/kg in assay [3] (setting [9]) was determined as 56%. The “Total WBC” value in assay [1] (setting [9]) is reported as 9.6 10^3 cells/μl.

In the case of `N#Cc1nc(C(=O)NCC(=O)O)c(O)c2ccn(Cc3ccccc3)c12` [Compound AR, [(1-Benzyl-7-cyano-4-hydroxy-1H-pyrrolo[2,3-c]pyridine-5-carbonyl)-amino]-acetic acid], the change in vivo at 100 mg/kg in assay [3] was found to be 71%. Besides, in assay [1] (setting [8]), the “Total WBC” value was 9.5 10^3 cells/μl.

Take `N#Cc1nc(C(=O)NCC(=O)O)c(O)c2c(Cl)c(Cl)n(Cc3ccc(-c4ccccc4)cc3)c12` [Compound AV, [(1-Biphenyl-4-ylmethyl-2,3-dichloro-7-cyano-4-hydroxy-1H-pyrrolo[2,3-c]pyridine-5-carbonyl)-amino]-acetic acid]: the change in vivo at 100 mg/kg in assay [3] was found to be 137%. Moreover, the “Total WBC” value in assay [1] (setting [8]) was 15.2 10^3 cells/μl.

On to `CC(C)Oc1ccc(Cn2c(Cl)c(Cl)c3c(O)c(C(=O)NCC(=O)O)nc(C#N)c32)cc1` [Compound AX, {[2,3-Dichloro-7-cyano-4-hydroxy-1-(4-isopropoxy-benzyl)-1H-pyrrolo[2,3-c]pyridine-5-carbonyl]-amino}-acetic acid], for which the change in vivo at 100 mg/kg in assay [3] was 81%. In addition, the “Total WBC” value in assay [1] (setting [8]) was 12.8 10^3 cells/μl.

For `CC(C)Oc1ccc(CN2C=CC3C(O)=C(C(=O)NCC(=O)O)N=C(C#N)C32)cc1` (centres unmarked) [Compound AZ, {[7-Cyano-4-hydroxy-1-(4-isopropoxy-benzyl)-3a,7a-dihydro-1H-pyrrolo[2,3-c]pyridine-5-carbonyl]-amino}-acetic acid], the change in vivo at 60 mg/kg in assay [3] was 79%. The “Total WBC” value in assay [1] (setting [10]) is given as 11.6 10^3 cells/μl.

Take `N#Cc1nc(C(=O)NCC(=O)O)c(O)c2c(Oc3cccc(Cl)c3)cccc12` [Compound BB, {[5-(3-Chloro-phenoxy)-1-cyano-4-hydroxy-isoquinoline-3-carbonyl]-amino}-acetic acid]: the change in vivo at 200 mg/kg in assay [3] was found to be 227%. The “Total WBC” value in assay [1] (setting [11]) is 20.1 10^3 cells/μl.

Consider `CC(C)Oc1ccc(Cn2cc(Cl)c3c(O)c(C(=O)NCC(=O)O)nc(C#N)c32)cc1` [Compound BC, {[3-Chloro-7-cyano-4-hydroxy-1-(4-isopropoxy-benzyl)-1H-pyrrolo[2,3-c]pyridine-5-carbonyl]-amino}-acetic acid], for which, in assay [3], the change in vivo at 100 mg/kg was determined as 148%. For the same compound, the “Total WBC” value in assay [1] (setting [8]) is reported as 15.9 10^3 cells/μl.

On to `CC(C)Oc1ccc(Cn2c(Cl)c(Cl)c3c(O)c(C(=O)N[C@@H](C)C(=O)O)nc(C#N)c32)cc1` [Compound BD, (S)-2-{[2,3-Dichloro-7-cyano-4-hydroxy-1-(4-isopropoxy-benzyl)-1H-pyrrolo[2,3-c]pyridine-5-carbonyl]-amino}-propionic acid], for which, in assay [3], the change in vivo at 200 mg/kg is 93%. Also, the “Total WBC” value in assay [1] (setting [11]) is 14.1 10^3 cells/μl.

Consider `COc1cccc(Oc2ccc3c(O)c(C(=O)NCC(=O)O)nc(C#N)c3c2)c1` [Compound BE, {[1-Cyano-4-hydroxy-7-(3-methoxy-phenoxy)-isoquinoline-3-carbonyl]-amino}-acetic acid], for which the change in vivo at 6 mg/kg stood at 40% in the assay with lymphocytes (setting [5]); 71% in the assay with monocytes (Mus musculus, Monocyte, 192 h, 6 mg/kg on day 1, day 3 and day 5, read-out: Monocytes % Increase Over Control); 39% in assay [1] (setting [6]); 30% in the assay with neutrophils [2] (setting [6]). Moreover, the Lymphocytes in the assay with lymphocytes (setting [6]) is listed as 8.1 10^3 cells/μl. The Monocytes with monocytes (setting [6]) is reported as 0.3 10^3 cells/μl. The “Total WBC” value in assay [1] (setting [6]) is given as 9.6 10^3 cells/μl. Besides, the Neutrophils in the assay on neutrophils [2] (setting [6]) is reported as 1.0 10^3 cells/μl.

`COc1cccc(Cn2ccc3c(O)c(C(=O)NCC(=O)O)nc(C#N)c32)c1` [Compound M, {[7-Cyano-4-hydroxy-1-(3-methoxy-benzyl)-1H-pyrrolo[2,3-c]pyridine-5-carbonyl]-amino}-acetic acid]: the change in vivo at 60 mg/kg in assay [3] turned out to be 149%; with lymphocytes (Mus musculus, Lymphocyte, 192 h, 60 mg/kg on day 1, day 3 and day 5, read-out: Lymphocytes % Increase Over Control), 126%; in the assay with monocytes (Mus musculus, Monocyte, 192 h, 60 mg/kg on day 1, day 3 and day 5, read-out: Monocytes % Increase Over Control), 100%. The Lymphocytes in the assay with lymphocytes (setting [10]) is recorded as 7.5 10^3 cells/μl. For the same compound, the Monocytes in the assay on monocytes (setting [10]) is reported as 0.1 10^3 cells/μl. In addition, the “Total WBC” value in assay [1] (setting [10]) is given as 9.7 10^3 cells/μl. The Neutrophils with neutrophils [2] (setting [10]) is given as 0.6 10^3 cells/μl.

As to `O=C(O)CNC(=O)c1ncc2cc(Oc3ccc(F)c(Cl)c3)ccc2c1O` [Compound W, {[7-(3-Chloro-4-fluoro-phenoxy)-4-hydroxy-isoquinoline-3-carbonyl]-amino}-acetic acid], the change in vivo at 200 mg/kg in assay [3] is 80%. The “Total WBC” value in assay [1] (setting [11]) was 8.4 10^3 cells/μl.
